Test results reported in patent US20240279233A1, “MACROCYCLIC TAK1 INHIBITORS” (Aqilion AB, priority 2021, published 2024).
Converted amounts (≈) assume the structure as drawn. Where two headings read alike, the source gives them in different places.

Experiments:
[1] = amide bond, 14-membered ring
[2] = amide bond, 14-membered ring; remark: listed apart in the source
[3] = target: human recombinant TAK1-TAB1 Kinase (TAK1 (1-303) and TAB1 (437-end)) (Homo sapiens (Human), UniProt O43318); experiment: TAK1 biochemical ADP-Glo kinase assay; conditions: MBP substrate
How it was run: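 Inhibition of human recombinant TAK1-TAB1 kinase was measured with a Promega ADP-Glo luminescence assay in 384-well plates. Compounds in 5% DMSO were pre-incubated 10 min with 2 μl TAK1-TAB1 (7.5 ng/μl) in buffer of Tris pH 7.5, MgCl2, DTT and BSA. MBP substrate and ATP were then added for 1 hour at room temperature. ADP-Glo reagent and kinase detection substrate followed, luminescence was read on an Envision, and IC50 came from non-linear regression.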

[4] = Solubility assay in phosphate buffer; conditions: phosphate buffer 100 mM, pH 7.4, room temperature, 20-24 h, LC-UV
Procedure: The aqueous solubility of selected example compounds was determined as follows; 6 μL of DMSO stock solution of the selected example was added to 594 μL phosphate buffer (100 mM, pH 7.4). The resulting mixture was equilibrated over night (20-24 h, Alligator Shaker, room temperature). The mixture was then filtered (Millex LH 0.45 μm) and the concentration/solubility was determined by LC-UV quantification.

[5] = 10 μM ATP, read-out: TAK1 Mean IC50 (nM) @ 10 μM ATP
[6] = phosphate buffer, pH 7.4, aqueous buffer, kinetic from dmso stock, Solubility (μM)
[7] = 1 mM ATP, read-out: TAK1 Mean IC50 (nM) @ 1 mM ATP

Chain of human recombinant TAK1-TAB1 Kinase (TAK1 (1-303) and TAB1 (437-end)) (O43318 other isoform, or with tags, fused parts or gaps): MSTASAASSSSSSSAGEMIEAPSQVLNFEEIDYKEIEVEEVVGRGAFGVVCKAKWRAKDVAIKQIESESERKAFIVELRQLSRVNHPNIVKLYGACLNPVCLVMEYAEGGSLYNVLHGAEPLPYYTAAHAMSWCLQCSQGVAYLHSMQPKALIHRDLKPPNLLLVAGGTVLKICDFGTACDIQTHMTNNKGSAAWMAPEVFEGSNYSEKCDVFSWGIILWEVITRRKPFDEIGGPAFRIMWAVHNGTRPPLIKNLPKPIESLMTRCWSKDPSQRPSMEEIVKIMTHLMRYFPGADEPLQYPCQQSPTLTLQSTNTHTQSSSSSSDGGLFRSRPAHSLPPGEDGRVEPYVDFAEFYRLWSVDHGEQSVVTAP

With C#Cc1cccc2nc3n(c12)[C@@H](C)CCCCNC(=O)c1cccc(c1)C(=O)N3 the ring closure, isolated yield ([1]; from C#Cc1cccc2nc(NC(=O)c3cccc(C(=O)O)c3)n([C@@H](C)CCCCN)c12, TCFH/NMI, MeCN/DMF, 0.82 mM, 0.0 °C, 4.0 h) was 73%.
CC1CCCCNC(=O)c2cccc(c2)C(=O)Nc2nc3cccc(N4CCCC4=O)c3n21 (centres unmarked) gave a ring closure, isolated yield ([1]; from CC(CCCCN)n1c(NC(=O)c2cccc(C(=O)O)c2)nc2cccc(N3CCCC3=O)c21, TCFH/NMI, DMF/MeCN, 4.2 mM, 25.0 °C, 2.5 h) of 7.7%.
In the case of CCOC(=O)c1cnc(Cl)c2nc3n(c12)[C@@H](C)CCCCNC(=O)c1cccc(c1)C(=O)N3, the ring closure, isolated yield ([1]; from CCOC(=O)c1cnc(Cl)c2nc(NC(=O)c3cccc(C(=O)O)c3)n([C@@H](C)CCCCN)c12, TCFH/NMI, MeCN/DMF, 1.29 mM, 0.0 °C, 4.0 h) is reported as 49%.
Work on COC(=O)c1cc(Br)cc2nc3n(c12)[C@@H](C)CCCCNC(=O)c1cccc(c1)C(=O)N3 yielded a ring closure, isolated yield ([1]; from COC(=O)c1cc(Br)cc2nc(NC(=O)c3cccc(C(=O)O)c3)n([C@@H](C)CCCCN)c12, TCFH/NMI, DMF/MeCN, 1.4 mM, 0.0 °C, 16.0 h) of 30%.
In the case of C[C@H]1CCCCNC(=O)c2cccc(c2)C(=O)Nc2nc3ccnc(Cl)c3n21, the ring closure, isolated yield ([1]; from C[C@@H](CCCCN)n1c(NC(=O)c2cccc(C(=O)O)c2)nc2ccnc(Cl)c21, TCFH/NMI, DMF/MeCN, 0.6 mM, 25.0 °C, 3.0 h) is reported as 20%.
Cc1nnc(-c2cccc3nc4n(c23)C(C)CCCCNC(=O)c2cccc(c2)C(=O)N4)o1 (centres unmarked) showed a ring closure, isolated yield ([1]; from Cc1nnc(-c2cccc3nc(NC(=O)c4cccc(C(=O)O)c4)n(C(C)CCCCN)c23)o1, HATU/DIEA, THF, 0.5 mM, 25.0 °C, 16.0 h, 2 steps) of 13%.
For Cc1ccc2c(c1)nc1n2CCCCCNC(=O)c2cccc(c2)C(=O)N1 [Example 4, 1^5-methyl-1^1H-2,6-diaza-1(2,1)-benzo[d]imidazola-4(1,3)-benzenacycloundecaphane-3,5-dione], the ring closure, yield after HPLC ([2]; from Cc1ccc2c(c1)nc(NC(=O)c1cccc(C(=O)O)c1)n2CCCCCN, HATU/TEA, MeCN, 50.0 °C, 16.0 h, 2 steps) was 39%, the IC50 [3, 5] was 7 nM and the solubility [4, 6] was 0.2 µM (≈ 0.0725 µg/mL).
For O=C1NCCOCCn2c(nc3ccccc32)NC(=O)c2cccc1c2 [Example 5, 1^1H-9-oxa-2,6-diaza-1(2,1)-benzo[d]imidazola-4(1,3)-benzenacycloundecaphane-3,5-dione], the ring closure, yield after HPLC ([2]; from NCCOCCn1c(NC(=O)c2cccc(C(=O)O)c2)nc2ccccc21, HATU/TEA, MeCN, 14.0 mM, 50.0 °C, 16.0 h, 2 steps) was 16%, the IC50 [3, 5] was 11 nM and the IC50 [3, 7] was 247 nM. For the same compound, the “solubility” value [4] was 15.2 µM (≈ 5.33 µg/mL).
CC1CCCCNC(=O)c2cccc(c2)C(=O)Nc2nc3ccccc3n21 (centres unmarked) [Example 6, 11-methyl-1^1H-2,6-diaza-1(2,1)-benzo[d]imidazola-4(1,3)-benzenacycloundecaphane-3,5-dione] gave a ring closure, yield after HPLC ([2]; from CC(CCCCN)n1c(NC(=O)c2cccc(C(=O)O)c2)nc2ccccc21, HATU/TEA, MeCN, 4.3 mM, 50.0 °C, 16.0 h, 2 steps) of 39%, an IC50 [3, 5] of 5 nM and a solubility [4, 6] of 2.5 µM (≈ 0.906 µg/mL).
For CN1CCN(Cc2cc(C(=O)N(C)C)c3c(c2)nc2n3CCCCCNC(=O)c3cccc(c3)C(=O)N2)CC1 [Example 27, (E)-N,N-dimethyl-1^5-((4-methylpiperazin-1-yl)methyl)-3,5-dioxo-1^2,1^3-dihydro-1^1H-2,6-diaza-1(2,1)-benzo[d]imidazola-4(1,3)-benzenacycloundecaphane-1^7-carboxamide], the ring closure, yield after HPLC ([2]; from CN1CCN(Cc2cc(C(=O)N(C)C)c3c(c2)nc(NC(=O)c2cccc(C(=O)O)c2)n3CCCCCN)CC1, HATU/DIEA, THF, then DMF, 0.46 mM, 40.0 °C, 18.0 h) was 10%, the IC50 [3, 5] was 8 nM and the solubility [4, 6] was 61.3 µM (≈ 32.6 µg/mL).
COc1ncccc1-c1cccc2nc3n(c12)CCCCCNC(=O)c1cccc(c1)C(=O)N3 [Example 28, (E)-1^7-(2-methoxypyridin-3-yl)-1^2,1^3-dihydro-1^1H-2,6-diaza-1(2,1)-benzo[d]imidazola-4(1,3)-benzenacycloundecaphane-3,5-dione] gave a ring closure, yield after HPLC ([2]; from COc1ncccc1-c1cccc2nc(NC(=O)c3cccc(C(=O)O)c3)n(CCCCCN)c12, HATU/DIEA, DMF, 0.49 mM, 16.0 h) of 19%, an IC50 [3, 5] of 366 nM and a solubility [4, 6] of 1.1 µM (≈ 0.501 µg/mL).
Compound C[C@@H]1CCCCNC(=O)c2cccc(c2)C(=O)Nc2nc3cccc(S(=O)(=O)N(C)C)c3n21 [Example 46, (R,E)-N,N,11-trimethyl-3,5-dioxo-1^2,1^3-dihydro-1^1H-2,6-diaza-1(2,1)-benzo[d]imidazola-4(1,3)-benzenacycloundecaphane-1^7-sulfonamide] has a ring closure, yield after HPLC ([2]; from C[C@H](CCCCN)n1c(NC(=O)c2cccc(C(=O)O)c2)nc2cccc(S(=O)(=O)N(C)C)c21, HATU/DIEA, THF, 0.5 mM, 50.0 °C, 16.0 h) of 24%, an IC50 [3, 5] of 2 nM and a solubility [4, 6] of 10 µM (≈ 4.7 µg/mL).
Compound Cc1nnc(-c2cccc3nc4n(c23)[C@H](C)CCCCNC(=O)c2cccc(c2)C(=O)N4)n1C [Example 57, (R,E)-1^7-(4,5-dimethyl-4H-1,2,4-triazol-3-yl)-11-methyl-1^2,1^3-dihydro-1^1H-2,6-diaza-1(2,1)-benzo[d]imidazola-4(1,3)-benzenacycloundecaphane-3,5-dione] has a ring closure, yield after HPLC ([2]; from Cc1nnc(-c2cccc3nc(NC(=O)c4cccc(C(=O)O)c4)n([C@H](C)CCCCN)c23)n1C, HATU/DIEA, THF, 0.5 mM, 50.0 °C, 23.0 h) of 31%, an IC50 [3, 5] of 3 nM and an IC50 [3, 7] of 6 nM. The solubility [4, 6] was 95 µM (≈ 43.5 µg/mL).
With C[C@@H]1CCCCNC(=O)c2cccc(c2)C(=O)Nc2nc3cccc(N4CCN(C)C4=O)c3n21 [Example 65, (R,E)-11-methyl-1^7-(3-methyl-2-oxoimidazolidin-1-yl)-1^2,1^3-dihydro-1^1H-2,6-diaza-1(2,1)-benzo[d]imidazola-4(1,3)-benzenacycloundecaphane-3,5-dione] the ring closure, isolated yield ([1]; from C[C@H](CCCCN)n1c(NC(=O)c2cccc(C(=O)O)c2)nc2cccc(N3CCN(C)C3=O)c21, HATU/DIEA, THF, 0.5 mM, 25.0 °C, 96.0 h) was 15%, the IC50 [3, 5] was 4 nM and the solubility [4, 6] was 95 µM (≈ 43.8 µg/mL).
With C[C@@H]1CCCCNC(=O)c2cccc(c2)C(=O)Nc2nc3cccc(-c4cn(C)nn4)c3n21 [Example 66, (R,E)-11-methyl-1^7-(1-methyl-1H-1,2,3-triazol-4-yl)-1^2,1^3-dihydro-1^1H-2,6-diaza-1(2,1)-benzo[d]imidazola-4(1,3)-benzenacycloundecaphane-3,5-dione] the ring closure, yield after HPLC ([2]; from C[C@H](CCCCN)n1c(NC(=O)c2cccc(C(=O)O)c2)nc2cccc(-c3cn(C)nn3)c21, HATU/DIEA, THF, 0.48 mM, 25.0 °C, 78.0 h) was 5%, the IC50 [3, 5] was 3 nM and the solubility [4, 6] was 5.2 µM (≈ 2.31 µg/mL).
Work on O=C1NCCCCCn2c(nc3cc(F)ccc32)NC(=O)c2cccc1c2 [Example 99, (E)-1^5-fluoro-1^2,1^3-dihydro-1^1H-2,6-diaza-1(2,1)-benzo[d]imidazola-4(1,3)-benzenacycloundecaphane-3,5-dione] yielded a ring closure, yield after HPLC ([2]; from NCCCCCn1c(NC(=O)c2cccc(C(=O)O)c2)nc2cc(F)ccc21, HATU/DIEA, THF, 0.5 mM, 50.0 °C, 16.0 h) of 16%, an IC50 [3, 5] of 4 nM and a solubility [4, 6] of 0.2 µM (≈ 0.0733 µg/mL).
CN1CCN(Cc2ccc3c(c2)nc2n3CCCCCNC(=O)c3cccc(n3)C(=O)N2)CC1 [Example 102, (E)-1^5-((4-methylpiperazin-1-yl)methyl)-1^2,1^3-dihydro-1^1H-2,6-diaza-1(2,1)-benzo[d]imidazola-4(2,6)-pyridinacycloundecaphane-3,5-dione] gave a ring closure, yield after HPLC ([2]; from CN1CCN(Cc2ccc3c(c2)nc(NC(=O)c2cccc(C(=O)O)n2)n3CCCCCN)CC1, T3P/DIEA, DMF, 50.0 mM, 25.0 °C, 1.5 h) of 30%, an IC50 [3, 5] of 9 nM and a solubility [4, 6] of 88 µM (≈ 40.6 µg/mL).
